From patent US11672788B2, “Histone deacetylase inhibitors for immunomodulation in tumor microenvironment” (GREAT NOVEL THERAPEUTICS BIOTECH & MEDICALS CORPORATION, priority 2020, dated 2023)

Columns and labels:
[1] = tested on: histone H3 acetylation (AcH3) in SW48 cells; test: Western blot of histone H3 acetylation; type: cell-based, human; details: SW48, 24 h, FIG. 12c
Procedure: Human breast cancer MDA-MB-231 cells and human colorectal adenocarcinoma SW48 cells were analyzed. MDA-MB-231 and SW48 were obtained from Bioresource Collection and Research Center (BCRC, Taiwan). MDA-MB-231 and SW48 were grown at 37° C. under humidified air supplemented without CO2 in Leibovitz's L-15 (cat. #11415114, Thermo Fisher Scientific) containing 10% heat inactivated fetal calf serum (Thermo Scientific), 1× concentration of MycoZap antibiotics (cat. #VZA-2011, Lonza). Cells were treated with GNTbm compounds series, Chidamide or Entinostat for different time periods or at varied doses. Cells were treated with indicated doses for 24 h or cells were treated with indicated doses for different time periods. Cell pellets were dissolved with RIPA buffer (cat. #20-188, Merck) with protease and phosphatase inhibitors (cat. #K272, BioVision) and clarified by centrifugation. Equal amounts of total protein were resolved by SDS-PAGE and transferred to polyvinylidene fluoride membranes (cat. #1620177, BIO-RAD). Blots were incubated with primary antibodies against β-actin (cat. #sc-47778, Santa Cruz Biotechnology), Histone 3ac (cat. #61637, Active Motif), and HRP secondary antibodies anti-rabbit (ab6721, Abcam) and anti-mouse (sc-2005, Santa Cruz). Blots were developed using the ECL Western Blotting Substrate (cat. #sc-2048, Santa Cruz Biotechnology) Image blots were analyzed with the iBright FL1000 (Thermo Fisher Scientific) imaging systems.

SW48 cells [2] = test: Cell cycle arrest by PI flow cytometry; type: cell-based, human; details: for Percentage of Cell Cycle Distribution G0/G1 / Percentage of Cell Cycle Distribution G2/M / Percentage of Cell Cycle Distribution S: 72 h; for Cell cycle arrest: SW48, doses of Table 12
Procedure: (§1) A PI/RNase staining assay (BD Bioscience™) was performed to reveal the presence of cell cycle arrest and apoptotic cells after treatment with GNTbm compounds, Chidamide and Entinostat. […] After treatment cells were harvested, fixed with 80% ethanol for 24 h, washed with 1×PBS and stained with PI/RNase for 15 min at room temperature. The cells were then analyzed using Flow Cytometer within 1 h.

NCI-N87 = test: In vitro cytotoxicity MTT assay; type: cell-based; details: Homo sapiens, 72 h, IC50 ± SD
Procedure: (§2) Six different cell lines were used, including human breast cancer cell line MDA-MB-231 (6×10^3), MDA-MB-453 (2.4×10^4), SK-BR-3 (6×10^3), human breast epithelial cell line M10 (6×10^3), human gastric carcinoma NCI-N87 (2.4×10^4), and human colorectal adenocarcinoma SW48 (2.4×10^4), and seeded in a 96 well plate. Cell lines were obtained from Bioresource Collection and Research Center, BCRC, Taiwan. […] After 72 h, MTT assay (Cayman™) was used to determine the cellular viability.

HDAC1 = HDAC1 (Homo sapiens (Human), UniProt Q13547); test: HDACs 1, 2, and 3 enzymatic inhibition (fluorogenic kit, 1 h); type: biochemical; details: 37° C.
Sequence of HDAC1 (Q13547 whole entry): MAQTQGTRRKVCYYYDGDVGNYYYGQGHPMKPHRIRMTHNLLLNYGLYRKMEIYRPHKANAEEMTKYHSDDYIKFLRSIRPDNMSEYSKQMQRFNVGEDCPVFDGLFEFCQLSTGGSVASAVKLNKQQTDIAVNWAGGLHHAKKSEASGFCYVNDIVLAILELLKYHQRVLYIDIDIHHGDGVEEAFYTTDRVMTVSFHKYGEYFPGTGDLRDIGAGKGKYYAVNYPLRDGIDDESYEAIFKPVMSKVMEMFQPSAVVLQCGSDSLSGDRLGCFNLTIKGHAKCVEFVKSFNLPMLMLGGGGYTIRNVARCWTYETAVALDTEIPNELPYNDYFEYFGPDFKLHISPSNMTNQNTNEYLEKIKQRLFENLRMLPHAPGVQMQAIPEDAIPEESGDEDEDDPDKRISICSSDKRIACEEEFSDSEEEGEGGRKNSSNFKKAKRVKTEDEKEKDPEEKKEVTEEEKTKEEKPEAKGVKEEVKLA
Procedure: (§3) HDACs assay was performed according to standard Protocols (Fluorgenic HDACs 1, 2, and 3 assay kit, BPS Bioscience™). […] After 1 h, assay developer was added to the samples and the absorbance was read at fluorogenic wavelength. The relative inhibition to HDACs 1, 2, and 3 activities in each sample was determined.

HDAC3 = HDAC3 (Homo sapiens (Human), UniProt O15379); test: as above; type: biochemical; details: 37° C.
Sequence of HDAC3 (O15379 whole entry): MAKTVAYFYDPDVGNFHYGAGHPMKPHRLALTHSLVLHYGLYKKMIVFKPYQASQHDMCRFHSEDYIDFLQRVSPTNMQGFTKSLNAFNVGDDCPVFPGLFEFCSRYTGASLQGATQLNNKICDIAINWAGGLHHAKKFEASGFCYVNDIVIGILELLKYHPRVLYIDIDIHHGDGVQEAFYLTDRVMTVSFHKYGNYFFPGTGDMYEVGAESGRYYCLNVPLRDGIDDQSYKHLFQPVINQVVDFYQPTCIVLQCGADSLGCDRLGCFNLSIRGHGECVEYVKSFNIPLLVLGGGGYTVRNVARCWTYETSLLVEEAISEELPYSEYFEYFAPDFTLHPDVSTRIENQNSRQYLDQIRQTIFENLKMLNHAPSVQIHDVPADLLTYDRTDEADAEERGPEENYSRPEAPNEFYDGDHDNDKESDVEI
Sequence of HDAC3 (Q9Y618 395-489 partner): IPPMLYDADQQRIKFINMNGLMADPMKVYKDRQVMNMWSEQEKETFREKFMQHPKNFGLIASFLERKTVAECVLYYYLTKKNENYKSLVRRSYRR
Procedure: as §3

HDAC2 = HDAC2 (Homo sapiens (Human), UniProt Q92769); test: as above; type: biochemical; details: 37° C.
Sequence of HDAC2 (Q92769 whole entry): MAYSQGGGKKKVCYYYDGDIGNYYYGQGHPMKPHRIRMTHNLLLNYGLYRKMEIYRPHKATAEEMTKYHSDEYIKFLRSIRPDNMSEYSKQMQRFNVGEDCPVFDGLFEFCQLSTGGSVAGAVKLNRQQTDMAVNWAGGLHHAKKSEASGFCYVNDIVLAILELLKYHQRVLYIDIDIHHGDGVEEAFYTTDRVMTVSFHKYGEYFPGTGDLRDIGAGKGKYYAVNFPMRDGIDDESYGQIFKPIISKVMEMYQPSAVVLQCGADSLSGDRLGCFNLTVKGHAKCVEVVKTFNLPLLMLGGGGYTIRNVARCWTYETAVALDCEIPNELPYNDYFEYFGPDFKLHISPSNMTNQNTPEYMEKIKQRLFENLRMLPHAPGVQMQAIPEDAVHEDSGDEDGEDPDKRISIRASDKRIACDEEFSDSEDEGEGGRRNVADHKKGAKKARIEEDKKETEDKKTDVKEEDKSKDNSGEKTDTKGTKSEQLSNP
Procedure: as §3

M10 = test: In vitro cytotoxicity MTT assay; type: cell-based, human; details: Homo sapiens, M10, 72 h, IC50 ± SD
Procedure: as §2

SW48 = test: In vitro cytotoxicity MTT assay; type: cell-based, human; details: Homo sapiens, SW48, 72 h, IC50 ± SD
Procedure: as §2

MDA-MB-453 = test: In vitro cytotoxicity MTT assay; type: cell-based, human; details: Homo sapiens, MDA-MB-453, 72 h, IC50 ± SD
Procedure: as §2

MDA-MB-231 = test: In vitro cytotoxicity MTT assay; type: cell-based, human; details: Homo sapiens, MDA-MB-231, 72 h, IC50 ± SD
Procedure: as §2

SW48 cells [3] = test: Cell apoptosis (sub-G1) by PI flow cytometry; type: cell-based, human; details: 72 h; for Induction of apoptosis: SW48, indicated doses (Table 13)
Procedure: as §1

## Nc1ccccc1NC(=O)c1ccc(NC(=O)C/C=C/c2cccnc2)cc1 [GNTbm-38, 4-((E)-4-(pyridin-3-yl)but-3-enamido)-N-(2-aminophenyl)benzamide]
[1]
  Histone 3 acetylation expression versus Chidamide: more potent in inducing the histone 3 acetylation expression in SW48 cells than Chidamide
SW48 cells [2]; SW48, 0.125 μM
  Percentage of Cell Cycle Distribution G0/G1: 63.3%
  Percentage of Cell Cycle Distribution G2/M: 17.4%
  Percentage of Cell Cycle Distribution S: 19.3%
SW48 cells [2]; SW48, 0.5 μM
  Percentage of Cell Cycle Distribution G0/G1: 61.8%
  Percentage of Cell Cycle Distribution G2/M: 27.8%
  Percentage of Cell Cycle Distribution S: 10.4%
SW48 cells [2]; SW48, 1 μM
  Percentage of Cell Cycle Distribution G0/G1: 57.7%
  Percentage of Cell Cycle Distribution G2/M: 29.8%
  Percentage of Cell Cycle Distribution S: 12.5%
SW48 cells [2]; SW48, 2 μM
  Percentage of Cell Cycle Distribution G0/G1: 53.9%
  Percentage of Cell Cycle Distribution G2/M: 32.5%
  Percentage of Cell Cycle Distribution S: 13.6%
SW48 cells [2]
  Cell cycle arrest: significantly induced cell cycle arrest in the G2/M phase in SW48 cells
NCI-N87
  IC50: 420 ± 80 nM
HDAC1
  IC50: 690 ± 30 nM
HDAC3
  IC50: 1200 ± 10 nM
HDAC2
  IC50: 280 ± 10 nM
M10
  IC50: 1990 ± 60 nM
SW48
  IC50: 1640 ± 5 nM
MDA-MB-453
  IC50: 1670 ± 10 nM
MDA-MB-231
  IC50: 3550 ± 450 nM
SW48 cells [3]; SW48, 0.125 μM
  Percentages of Cell Apoptosis: 8.5%
SW48 cells [3]; SW48, 0.5 μM
  Percentages of Cell Apoptosis: 18.3%
SW48 cells [3]; SW48, 1 μM
  Percentages of Cell Apoptosis: 24.4%
SW48 cells [3]; SW48, 2 μM
  Percentages of Cell Apoptosis: 37.3%
SW48 cells [3]
  Induction of apoptosis: potent in inducing apoptosis in SW48 cells

## Nc1ccccc1NC(=O)c1ccc(NC(=O)C/C=C/c2cccnc2)cn1 [GNTbm-05, 5-((E)-4-(pyridin-3-yl)but-3-enamido)-N-(2-aminophenyl)pyridine-2-carboxamide]
[1]
  Histone 3 acetylation expression versus Chidamide: more potent in inducing the histone 3 acetylation expression in SW48 cells than Chidamide
SW48 cells [2]; SW48, 0.125 μM
  Percentage of Cell Cycle Distribution G0/G1: 61.5%
  Percentage of Cell Cycle Distribution G2/M: 18.7%
  Percentage of Cell Cycle Distribution S: 19.8%
SW48 cells [2]; SW48, 0.5 μM
  Percentage of Cell Cycle Distribution G0/G1: 59.2%
  Percentage of Cell Cycle Distribution G2/M: 22.2%
  Percentage of Cell Cycle Distribution S: 18.6%
SW48 cells [2]; SW48, 1 μM
  Percentage of Cell Cycle Distribution G0/G1: 55.4%
  Percentage of Cell Cycle Distribution G2/M: 31.8%
  Percentage of Cell Cycle Distribution S: 12.8%
SW48 cells [2]; SW48, 2 μM
  Percentage of Cell Cycle Distribution G0/G1: 53.6%
  Percentage of Cell Cycle Distribution G2/M: 34.6%
  Percentage of Cell Cycle Distribution S: 11.8%
SW48 cells [2]
  Cell cycle arrest: significantly induced cell cycle arrest in the G2/M phase in SW48 cells
NCI-N87
  IC50: 280 ± 10 nM
HDAC1
  IC50: 140 ± 2 nM
HDAC3
  IC50: 1 ± 0.04 nM
HDAC2
  IC50: 360 ± 20 nM
M10
  IC50: 430 ± 30 nM
SW48
  IC50: 1640 ± 20 nM
MDA-MB-453
  IC50: 1580 ± 3 nM
MDA-MB-231
  IC50: 1660 ± 20 nM
SW48 cells [3]; SW48, 0.125 μM
  Percentages of Cell Apoptosis: 9.0%
SW48 cells [3]; SW48, 0.5 μM
  Percentages of Cell Apoptosis: 17.9%
SW48 cells [3]; SW48, 1 μM
  Percentages of Cell Apoptosis: 27.2%
SW48 cells [3]; SW48, 2 μM
  Percentages of Cell Apoptosis: 42.4%
SW48 cells [3]
  Induction of apoptosis: potent in inducing apoptosis in SW48 cells
